Measured values published in PubChem BioAssay (NCI).
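Results reflect a 48-hour exposure of cells in 96-well plates to compound at five concentrations. At the GI50, growth is halved. TGI is the concentration that stops growth completely.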

Assays:
Experiment in all cases: NCI anticancer screen, dose series, 48 h
786-0 renal = test system: 786-0 renal
A498 renal = test system: A498 renal
A549 NSCLC = test system: A549 NSCLC
ACHN renal = test system: ACHN renal
BT-549 breast = test system: BT-549 breast
CAKI-1 renal = test system: CAKI-1 renal
CCRF-CEM leukemia = test system: CCRF-CEM leukemia
COLO 205 colon = test system: COLO 205 colon
DU-145 prostate = test system: DU-145 prostate
HCC-2998 colon = test system: HCC-2998 colon
HCT-116 colon = test system: HCT-116 colon
HCT-15 colon = test system: HCT-15 colon
HL-60(TB) leukemia = test system: HL-60(TB) leukemia
HOP-62 NSCLC = test system: HOP-62 NSCLC
HS 578T breast = test system: HS 578T breast
HT29 colon = test system: HT29 colon
IGROV1 ovarian = test system: IGROV1 ovarian
K-562 leukemia = test system: K-562 leukemia
KM12 colon = test system: KM12 colon
LOX IMVI melanoma = test system: LOX IMVI melanoma
M14 melanoma = test system: M14 melanoma
MALME-3M melanoma = test system: MALME-3M melanoma
MCF7 breast = test system: MCF7 breast
MDA-MB-231 breast = test system: MDA-MB-231 breast
MDA-MB-435 = test system: MDA-MB-435
MOLT-4 leukemia = test system: MOLT-4 leukemia
NCI-H226 lung = test system: NCI-H226 lung
NCI-H23 lung = test system: NCI-H23 lung
NCI-H460 lung = test system: NCI-H460 lung
NCI-H522 lung = test system: NCI-H522 lung
NCI/ADR-RES ovarian = test system: NCI/ADR-RES ovarian
OVCAR-4 ovarian = test system: OVCAR-4 ovarian
OVCAR-5 ovarian = test system: OVCAR-5 ovarian
OVCAR-8 ovarian = test system: OVCAR-8 ovarian
PC-3 prostate = test system: PC-3 prostate
RPMI-8226 leukemia = test system: RPMI-8226 leukemia
RXF 393 renal = test system: RXF 393 renal
SF-268 CNS = test system: SF-268 CNS
SF-295 CNS = test system: SF-295 CNS
SF-539 CNS = test system: SF-539 CNS
SK-MEL-2 melanoma = test system: SK-MEL-2 melanoma
SK-MEL-28 melanoma = test system: SK-MEL-28 melanoma
SK-MEL-5 melanoma = test system: SK-MEL-5 melanoma
SK-OV-3 ovarian = test system: SK-OV-3 ovarian
SN12C renal = test system: SN12C renal
SNB-19 CNS = test system: SNB-19 CNS
SNB-75 CNS = test system: SNB-75 CNS
SR leukemia = test system: SR leukemia
SW-620 colon = test system: SW-620 colon
T-47D breast = test system: T-47D breast
TK-10 renal = test system: TK-10 renal
U251 CNS = test system: U251 CNS
UACC-257 melanoma = test system: UACC-257 melanoma
UACC-62 melanoma = test system: UACC-62 melanoma
UO-31 renal = test system: UO-31 renal

Structure (SMILES): COc1ccc(S(=O)(=O)NCCCNc2nccc(-c3c(-c4ccc(F)cc4)nc4sccn34)n2)cc1
- GI50 (786-0 renal): 5.83 µM
- TGI (786-0 renal): > 100 µM
- GI50 (A498 renal): 1210 nM
- TGI (A498 renal): 8.37 µM
- GI50 (A549 NSCLC): 4.33 µM
- TGI (A549 NSCLC): > 100 µM
- GI50 (ACHN renal): 2730 nM
- TGI (ACHN renal): > 100 µM
- GI50 (BT-549 breast): 5.42 µM
- TGI (BT-549 breast): 59.4 µM
- GI50 (CAKI-1 renal): 6.72 µM
- TGI (CAKI-1 renal): > 100 µM
- GI50 (CCRF-CEM leukemia): 4.42 µM
- TGI (CCRF-CEM leukemia): > 100 µM
- GI50 (COLO 205 colon): 5.58 µM
- TGI (COLO 205 colon): 73.9 µM
- GI50 (DU-145 prostate): 7.14 µM
- TGI (DU-145 prostate): > 100 µM
- GI50 (HCC-2998 colon): 11.8 µM
- TGI (HCC-2998 colon): 56.7 µM
- GI50 (HCT-116 colon): 4.85 µM
- TGI (HCT-116 colon): > 100 µM
- GI50 (HCT-15 colon): 3.6 µM
- TGI (HCT-15 colon): > 100 µM
- GI50 (HL-60(TB) leukemia): 7.51 µM
- TGI (HL-60(TB) leukemia): > 100 µM
- GI50 (HOP-62 NSCLC): 18 µM
- TGI (HOP-62 NSCLC): > 100 µM
- GI50 (HS 578T breast): 3.58 µM
- TGI (HS 578T breast): > 100 µM
- GI50 (HT29 colon): 2840 nM
- TGI (HT29 colon): 20.2 µM
- GI50 (IGROV1 ovarian): 5.59 µM
- TGI (IGROV1 ovarian): > 100 µM
- GI50 (K-562 leukemia): 2990 nM
- TGI (K-562 leukemia): > 100 µM
- GI50 (KM12 colon): 5.07 µM
- TGI (KM12 colon): > 100 µM
- GI50 (LOX IMVI melanoma): 5.53 µM
- TGI (LOX IMVI melanoma): > 100 µM
- GI50 (M14 melanoma): 8.98 µM
- TGI (M14 melanoma): > 100 µM
- GI50 (MALME-3M melanoma): 5.78 µM
- TGI (MALME-3M melanoma): > 100 µM
- GI50 (MCF7 breast): 2740 nM
- TGI (MCF7 breast): > 100 µM
- GI50 (MDA-MB-231 breast): 7.27 µM
- TGI (MDA-MB-231 breast): > 100 µM
- GI50 (MDA-MB-435): 3.28 µM
- TGI (MDA-MB-435): > 100 µM
- GI50 (MOLT-4 leukemia): 5.7 µM
- TGI (MOLT-4 leukemia): > 100 µM
- GI50 (NCI-H226 lung): 6.06 µM
- TGI (NCI-H226 lung): > 100 µM
- GI50 (NCI-H23 lung): 15.3 µM
- TGI (NCI-H23 lung): > 100 µM
- GI50 (NCI-H460 lung): 4.33 µM
- TGI (NCI-H460 lung): > 100 µM
- GI50 (NCI-H522 lung): 5.02 µM
- TGI (NCI-H522 lung): > 100 µM
- GI50 (NCI/ADR-RES ovarian): 5.23 µM
- TGI (NCI/ADR-RES ovarian): > 100 µM
- GI50 (OVCAR-4 ovarian): 3.07 µM
- TGI (OVCAR-4 ovarian): 27.2 µM
- GI50 (OVCAR-5 ovarian): 32.7 µM
- TGI (OVCAR-5 ovarian): > 100 µM
- GI50 (OVCAR-8 ovarian): 4.3 µM
- TGI (OVCAR-8 ovarian): > 100 µM
- GI50 (PC-3 prostate): 8.74 µM
- TGI (PC-3 prostate): > 100 µM
- GI50 (RPMI-8226 leukemia): 6.25 µM
- TGI (RPMI-8226 leukemia): 58.2 µM
- GI50 (RXF 393 renal): 3.36 µM
- TGI (RXF 393 renal): 76.7 µM
- GI50 (SF-268 CNS): 7.85 µM
- TGI (SF-268 CNS): > 100 µM
- GI50 (SF-295 CNS): 11.2 µM
- TGI (SF-295 CNS): 72.3 µM
- GI50 (SF-539 CNS): 17.1 µM
- TGI (SF-539 CNS): > 100 µM
- GI50 (SK-MEL-2 melanoma): 12.4 µM
- TGI (SK-MEL-2 melanoma): 50.3 µM
- GI50 (SK-MEL-28 melanoma): 9.5 µM
- TGI (SK-MEL-28 melanoma): > 100 µM
- GI50 (SK-MEL-5 melanoma): 5.49 µM
- TGI (SK-MEL-5 melanoma): 74.9 µM
- GI50 (SK-OV-3 ovarian): 8.11 µM
- TGI (SK-OV-3 ovarian): > 100 µM
- GI50 (SN12C renal): 7.55 µM
- TGI (SN12C renal): > 100 µM
- GI50 (SNB-19 CNS): 40.2 µM
- TGI (SNB-19 CNS): > 100 µM
- GI50 (SNB-75 CNS): 1560 nM
- TGI (SNB-75 CNS): 7.41 µM
- GI50 (SR leukemia): 3.69 µM
- TGI (SR leukemia): > 100 µM
- GI50 (SW-620 colon): 24 µM
- TGI (SW-620 colon): > 100 µM
- GI50 (T-47D breast): 3.24 µM
- TGI (T-47D breast): 71.3 µM
- GI50 (TK-10 renal): 11.8 µM
- TGI (TK-10 renal): > 100 µM
- GI50 (U251 CNS): 7.26 µM
- TGI (U251 CNS): > 100 µM
- GI50 (UACC-257 melanoma): 12.6 µM
- TGI (UACC-257 melanoma): > 100 µM
- GI50 (UACC-62 melanoma): 3.38 µM
- TGI (UACC-62 melanoma): 74.8 µM
- GI50 (UO-31 renal): 3.83 µM
- TGI (UO-31 renal): > 100 µM
